Measured values from patent US7825126B2 (The United States of America as represented by the …, priority 2004, dated 2010).
pEC50, pKi: −log10 of the molar value. “And” between values parts separate entries of the source, which are not always exact repeats. Identical values can stand only once.

What was measured:
rat A1 receptors = rat A1 receptors (Rattus norvegicus, UniProt P25099); test: biochemical
Experimental: Striatal and forebrain tissues from Wistar rats were homogenized in ice-cold 50 mM Tris-HCl buffer, pH 7.4, using an electric homogenizer. The homogenate was centrifuged at 20,000 g for 10 min at 4° C., and the pellet was washed in fresh buffer. The final pellet was stored at −80° C. until the binding experiments. The protein concentration was measured using the Bradford assay.
Binding assays at the A1 and A2A receptors. […] Reaction was terminated by filtration with GF/B filters.
Statistical analysis Binding and functional parameters were calculated using Prism 5.0 software (GraphPAD, San Diego, Calif., USA). IC50 values obtained from competition curves were converted to Ki values using the Cheng-Prusoff equation.

intact mouse heart = test: Anti-ischemic cardioprotection, Langendorff-perfused mouse heart model of global ischemia/reperfusion; format: in vivo; conditions: 30 nM
Experimental: Anti-ischemic Cardioprotection. Langendorff perfusion of the mouse hearts was carried out. Mice were anesthetized with 60 mg/kg sodium pentobarbital (i.p.), and heart excised in ice-cold perfusion buffer. The aorta was cannulated and retrograde perfused in the Langendorff mode at a pressure of 55 mmHg. To assess isovolumic function, fluid-filled polyvinyl plastic film balloons were inserted into the left ventricle via the left atrium. Balloons were connected to a fluid-filled pressure transducer to measure the left ventricular developed pressure (LVDP), +dP/dt, −dP/dt, and heart rate. To induce normothermic global ischemia and reperfusion, retrograde perfusion of the aorta was stopped, and hearts were immersed in the same perfusion buffer in a water-jacketed bath maintained at 37° C. After 35-min ischemia and 30-min reperfusion, the recovery of left ventricular function was determined by quantifying the LVDP, +dP/dt, and −dP/dt. To quantify the infarct, the hearts were retrograde perfused with 1% triphenyltetrazolium chloride (TTC) in perfusion buffer for 10 minutes after 120-min reperfusion, which allowed washout of pyridine nucleotides from necrotic cells as required for TTC staining. The heart was then immersed in the same TTC buffer for another 10 minutes. The hearts were frozen, cut into six or seven 1 mm slices from apex to base, and scanned for measurement of infarct size by computer morphometry (Image-Pro Plus, version 5.0, Media Cybernetics, Inc, Silver Spring, Md.). The infarct size was quantified as the area of necrosis normalized to the total ventricular area.

[1] = target: T1, human A3 adenosine receptor (Homo sapiens, UniProt P0DMS8); test: Cyclic AMP accumulation assay (inhibition of forskolin-stimulated cAMP), CHO cells expressing human A3 adenosine receptor
T1 sequence (P0DMS8 1-318): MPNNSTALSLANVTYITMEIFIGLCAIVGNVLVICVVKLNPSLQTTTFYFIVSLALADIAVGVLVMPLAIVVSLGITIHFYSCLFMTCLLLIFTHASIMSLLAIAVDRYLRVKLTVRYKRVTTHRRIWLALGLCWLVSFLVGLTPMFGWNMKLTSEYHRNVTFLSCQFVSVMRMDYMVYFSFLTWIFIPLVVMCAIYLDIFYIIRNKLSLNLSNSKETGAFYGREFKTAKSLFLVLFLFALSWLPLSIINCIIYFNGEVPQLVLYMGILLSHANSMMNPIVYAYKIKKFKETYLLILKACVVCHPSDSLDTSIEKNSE
Experimental: (§1) The cyclic AMP accumulation assay was performed as follows. Intracellular cyclic AMP levels were measured with a competitive protein binding method. […] After centrifugation and resuspension in medium, cells were plated in 24-well plates in 1.0 ml medium. […] The reaction was terminated by removing the supernatant, and cells were lysed upon the addition of 200 μL of 0.1 M ice-cold HCl. The cell lysate was resuspended and stored at −20° C. For determination of cyclic AMP production, protein kinase A (PKA) was incubated with [^3H]cyclic AMP (2 nM) in K2HPO4/EDTA buffer (K2HPO4, 150 mM; EDTA, 10 mM), 20 μL of the cell lysate, and 30 μL 0.1 M HCl or 50 μL of cyclic AMP solution (0-16 pmol/200 μL for standard curve). Bound radioactivity was separated by rapid filtration through Whatman GF/C filters and washed once with cold buffer. Bound radioactivity was measured by liquid scintillation spectrometry.
(§2) Forskolin (10 μM) was used to stimulate cyclic AMP levels.

[2] = target: T2, human A1 adenosine receptor (Homo sapiens, UniProt P30542); test: Cyclic AMP accumulation assay (inhibition of forskolin-stimulated cAMP), CHO cells expressing human A1 adenosine receptor
T2 sequence (P30542 1-326): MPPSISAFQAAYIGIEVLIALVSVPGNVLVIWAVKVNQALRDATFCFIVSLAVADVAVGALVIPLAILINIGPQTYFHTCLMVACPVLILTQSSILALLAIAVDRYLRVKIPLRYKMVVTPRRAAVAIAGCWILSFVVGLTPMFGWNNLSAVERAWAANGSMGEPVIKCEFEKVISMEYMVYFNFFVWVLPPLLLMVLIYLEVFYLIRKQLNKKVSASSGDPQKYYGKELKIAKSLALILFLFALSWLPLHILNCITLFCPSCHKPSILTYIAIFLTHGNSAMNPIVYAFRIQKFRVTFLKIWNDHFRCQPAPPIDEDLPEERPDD
Experimental: as §1, §2

[3] = n = 6, 35 global ischemia followed by reperfusion

rat A1 receptors, sequence (P25099 whole entry, the tested form may be a part): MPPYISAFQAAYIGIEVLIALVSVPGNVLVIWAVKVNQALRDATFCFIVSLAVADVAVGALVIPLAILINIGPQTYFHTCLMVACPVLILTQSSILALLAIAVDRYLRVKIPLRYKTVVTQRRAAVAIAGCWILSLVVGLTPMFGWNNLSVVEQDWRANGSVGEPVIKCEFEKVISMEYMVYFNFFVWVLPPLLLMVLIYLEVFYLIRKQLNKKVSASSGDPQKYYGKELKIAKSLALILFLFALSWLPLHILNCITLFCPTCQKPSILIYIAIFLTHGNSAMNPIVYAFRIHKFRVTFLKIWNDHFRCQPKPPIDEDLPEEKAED

CNC(=O)C12CC1C(n1cnc3c(NC4CCCC4)nc(Cl)nc31)C(O)C2O (stereo not drawn) [Compound 104, (1′S,2′R,3′S,4′S,5′S) -4′-[6-(cyclopentylamino)-2-chloro-purin-9-yl]-2′,3′-dihydroxy-bicyclo[3.1.0]hexane-1′-carboxylic acid methyl amide]
pKi (rat A1 receptors): 7.76
recovery of left ventricular developed pressure, +dP/dt, −dP/dt and heart rate (in words) (intact mouse heart): improved significantly
Recovery of +dP/dt (intact mouse heart; [3]): 21.1 ± 4.9 % of baseline prior to ischemia/reperfusion
Recovery of HR (intact mouse heart; [3]): 93.8 ± 19.3 % of baseline prior to ischemia/reperfusion
Recovery of LVDP (intact mouse heart; [3]): 26.0 ± 4.8 % of baseline prior to ischemia/reperfusion
Recovery of −dP/dt (intact mouse heart; [3]): 24.6 ± 7 % of baseline prior to ischemia/reperfusion
% necrosis (infarct size, TTC staining) (intact mouse heart; n = 6, area of necrosis normalized to total ventricular area): 15±7% and 15.0 ± 6.9%
anti-ischemic cardioprotective effect (in words) (intact mouse heart; perfused until induction of ischemia): potent anti-ischemic cardioprotective effect
infarct size (in words) (intact mouse heart; computer morphometry after TTC staining): significantly reduced
pEC50 [1]: 8.55
% Activation (hA3AR) at 10 μM ([1]; 10 μM, relative to 10 μM Cl-IB-MECA): 101 ± 10%
agonist character at human A3 (concentration response curves, cAMP) ([1]; intact transfected CHO cells): full agonist
pEC50 [2]: 8.09
agonist character at human A1 (concentration response curves, cAMP) ([2]; intact transfected CHO cells): full agonist
